Measurements from patent US12527779B2, “Prostaglandin E2 (PGE2) EP4 receptor antagonists” (Domain Therapeutics, priority 2019, dated 2026).
Counter-ions that a name gives are not always drawn.

molecular target: T1, human EP4 (hEP4) receptor (Homo sapiens, UniProt P35408); experiment: In vitro human EP4 functional antagonist activity using BRET biosensors (cAMP EPAC biosensor, TCS2510 stimulation); type: cell-based; conditions: antagonist activity vs EC60 TCS2510, hEP4 in HEK-293 T cells
T1 construct: expressed in transfected cells; host or cells: HEK-293 T cells, transient co-transfection with polyethylenimine
How it was run: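 HEK-293T cells transiently co-transfected with hEP4 and EPAC cAMP BRET biosensor (luciferase/GFP), assayed 48 h later in HEPES-buffered saline after 1 h at 22 °C. After 5 min with compound, cells stimulated with EC60 TCS2510 and BRET read for 10 min; IC50 from 10-point, 4.5-log variable-slope fits, duplicate, two experiments.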

T1 sequence (P35408 whole entry): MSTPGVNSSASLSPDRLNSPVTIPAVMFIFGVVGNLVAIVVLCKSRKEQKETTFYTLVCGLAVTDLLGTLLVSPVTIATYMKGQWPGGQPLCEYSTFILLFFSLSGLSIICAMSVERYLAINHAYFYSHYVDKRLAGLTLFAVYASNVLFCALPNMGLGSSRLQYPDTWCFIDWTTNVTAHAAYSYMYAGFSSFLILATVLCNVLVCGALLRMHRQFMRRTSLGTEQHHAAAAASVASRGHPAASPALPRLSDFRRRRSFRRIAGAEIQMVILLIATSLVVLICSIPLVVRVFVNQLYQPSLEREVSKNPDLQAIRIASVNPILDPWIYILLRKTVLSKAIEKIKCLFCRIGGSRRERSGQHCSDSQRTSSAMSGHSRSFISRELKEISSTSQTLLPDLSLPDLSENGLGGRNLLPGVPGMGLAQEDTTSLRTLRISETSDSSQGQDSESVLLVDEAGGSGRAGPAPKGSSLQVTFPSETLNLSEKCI

`C[C@H](NC(=O)C1(N2CC[C@@H](Oc3cccc(C(F)(F)F)c3)C2)CCOCC1)c1ccc(-c2cn[nH]c2)cc1` [Example 176, N—((S)-1-(4-(1H-Pyrazol-4-yl)phenyl)ethyl)-4-((R)-3-(3-(trifluoromethyl)phenoxy)pyrrolidin-1-yl)tetrahydro-2H-pyran-4-carboxamide, hydrochloride] and `C[C@H](NC(=O)C1(N2CC[C@@H](Oc3cccc(C(F)(F)F)c3)C2)CCOCC1)c1cccnc1` [Example 185, N—((S)-1-(Pyridin-3-yl)ethyl)-4-((R)-3-(3-(trifluoromethyl)phenoxy)pyrrolidin-1-yl)tetrahydro-2H-pyran-4-carboxamide, hydrochloride] cannot be ordered by IC50: less than 100 nM for the first, less than 1000 nM for the second.

`C[C@H](NC(=O)C1(N2CC[C@@H](Oc3cccc(OC(F)(F)F)c3)C2)CCOCC1)c1ccc(C(=O)O)cc1` [Example 146, 4-[(1S)-1-[[4-[(3R)-3-[3-(Trifluoromethoxy)phenoxy]pyrrolidin-1-yl]tetrahydropyran-4-carbonyl]amino]ethyl]benzoic acid, hydrochloride] and `C[C@H](NC(=O)C1(N2CC[C@@H](Oc3cccc(C(F)(F)F)c3)C2)CCCC1)c1ccc(C(=O)O)cc1` [Example 164, 4-[(1S)-1-[[1-[(3R)-3-[3-Trifluoromethyl)phenoxy]pyrrolidin-1-yl]cyclopentane-1-carbonyl]amino]ethyl]benzoic acid, hydrochloride] cannot be ordered by IC50: less than 100 nM for the first, less than 100 nM for the second.

`CN(CCOc1ccccc1)C1(C(=O)NC2(c3ccc(C(=O)O)cc3Cl)CC2)CCOCC1` [Example 52, 3-Chloro-4-[1-[[4-[methyl(2-phenoxyethyl)amino]tetrahydropyran-4-carbonyl]amino]cyclopropyl]benzoic acid, hydrochloride] and `CN(CCOc1ccccc1)C1(C(=O)NC2(c3ccc(C(=O)O)c(Cl)c3)CC2)CCOCC1` [Example 51, 2-Chloro-4-[1-[[4-[methyl(2-phenoxyethyl)amino]tetrahydropyran-4-carbonyl]amino]cyclopropyl]benzoic acid, hydrochloride] cannot be ordered by IC50: less than 100 nM for the first, less than 1000 nM for the second.

`C[C@H](NC(=O)C(C)(C)N1CC[C@@H](Oc2cccc(C(F)(F)F)c2)C1)c1ccc(C(N)=O)cc1` [Example 173, 4-[(1S)-1-[[2-[(3R)-3-[3-(Trifluoromethyl)phenoxy]pyrrolidin-1-yl]-2-methylpropane-carbonyl]amino]ethyl]benzamide, hydrochloride] and `C[C@H](NC(=O)C(C)(C)N1CC[C@@H](Oc2cccc(Cl)c2)C1)c1ccc(C(N)=O)cc1` [Example 174, hydrochloride] cannot be ordered by IC50: less than 100 nM for the first, less than 100 nM for the second.

`CN(CCOc1cccc(OC(F)(F)F)c1)C1(C(=O)NC2(c3ccc(C(=O)O)cc3)CC2)CCOCC1` [Example 43, 4-[1-[[4-[2-(3-Trifluoromethoxyphenoxy)ethyl-methyl-amino]tetrahydropyran-4-carbonyl]amino]cyclopropyl]benzoic acid, hydrochloride] and `CN(CCOc1cccc(F)c1)C1(C(=O)NC2(c3ccc(C(=O)O)cc3)CC2)CCOCC1` [Example 32, 4-[1-[[4-[2-(3-Fluorophenoxy)ethyl-methyl-amino]tetrahydropyran-4-carbonyl]amino]cyclopropyl]benzoic acid, hydrochloride] cannot be ordered by IC50: less than 100 nM for the first, less than 100 nM for the second.

`C[C@H](NC(=O)C1(N2CC[C@@H](Oc3cccc(C(F)(F)F)c3)C2)CCOCC1)c1ccccc1F` [Example 189, N—((S)-1-(2-Fluorophenyl)ethyl)-4-((R)-3-(3-(trifluoromethyl)phenoxy)pyrrolidin-1-yl)tetrahydro-2H-pyran-4-carboxamide, hydrochloride] and `C[C@H](NC(=O)C1(N2CC[C@@H](Oc3cccc(C(F)(F)F)c3)C2)CCCCC1)c1ccc(C(=O)O)cc1` [Example 162, 4-[(1S)-1-[[1-[(3R)-3-[3-(Trifluoromethyl)phenoxy]pyrrolidin-1-yl]cyclohexane-1-carbonyl]amino]ethyl]benzoic acid, hydrochloride] cannot be ordered by IC50: less than 1000 nM for the first, less than 100 nM for the second.

`C[C@H](NC(=O)C1(N(C)CCOc2ccccc2)CCOC1)c1ccc(C(=O)O)cc1` (stereo partly drawn) [Example 74, 4-[(1S)-1-[[3-[Methyl(2-phenoxyethyl)amino]tetrahydrofuran-3-carbonyl]amino]ethyl]benzoic acid, hydrochloride] and `C[C@H](NC(=O)C1(N(C)CCOc2ccccc2)CCOCC1)c1ccc(C(=O)N(C)C)cc1` [Example 5, N-[(1S)-1-[4-(Dimethylcarbamoyl)phenyl]ethyl]-4-[methyl(2-phenoxyethyl)amino]tetrahydropyran-4-carboxamide] cannot be ordered by IC50: less than 100 nM for the first, less than 1000 nM for the second.

`O=C(O)c1ccc(C2(NC(=O)C3(N4CCC[C@@H](Oc5cccc(Cl)c5)C4)CCOCC3)CC2)cc1` [Example 137, 4-[1-[[4-[(3R)-3-(3-Chlorophenoxy)-1-piperidyl]tetrahydropyran-4-carbonyl]amino]cyclopropyl]benzoic acid, hydrochloride] and `O=C(O)c1ccc(C2(NC(=O)C3(N4CC[C@H](Oc5cccc(Cl)c5)C4)CCOCC3)CC2)cc1` [Example 139, 4-[1-[[4-[(3S)-3-(3-Chlorophenoxy)pyrrolidin-1-yl]tetrahydropyran-4-carbonyl]amino]cyclopropyl]benzoic acid, hydrochloride] cannot be ordered by IC50: less than 100 nM for the first, less than 1000 nM for the second.

`CN(CCOc1ccccc1C(F)(F)F)C1(C(=O)NC2(c3ccc(C(=O)O)cc3)CC2)CCOCC1` [Example 42, 4-[1-[[4-[2-(2-Trifluoromethylphenoxy)ethyl-methyl-amino]tetrahydropyran-4-carbonyl]amino]cyclopropyl]benzoic acid, hydrochloride] and `CN(CCOc1ccc(F)cc1)C1(C(=O)NC2(c3ccc(C(=O)O)cc3)CC2)CCOCC1` [Example 34, 4-[1-[[4-[2-(4-Fluorophenoxy)ethyl-methyl-amino]tetrahydropyran-4-carbonyl]amino]cyclopropyl]benzoic acid, hydrochloride] cannot be ordered by IC50: less than 1000 nM for the first, less than 100 nM for the second.

`C[C@H](NC(=O)C(C)(C)N1CC[C@@H](Oc2cccc(C(F)(F)F)c2)C1)c1ccc(S(C)(=N)=O)cc1` (stereo partly drawn) [Example 205, 2-Methyl-N-((1S)-1-(4-(S-methylsulfonimidoyl)phenyl)ethyl)-2-((R)-3-(3-(trifluoromethyl)phenoxy)pyrrolidin-1-yl)propanamide, hydrochloride] and `C[C@H](NC(=O)C(C)(C)N1CC[C@@H](COc2cccc(Cl)c2)C1)c1ccc(C(=O)O)cc1` [Example 209, 4-((S)-1-(2-((R)-3-((3-Chlorophenoxy)methyl)pyrrolidin-1-yl)-2-methylpropanamido)ethyl)benzoic acid] cannot be ordered by IC50: less than 100 nM for the first, less than 100 nM for the second.

`O=C(O)c1ccc(C2(NC(=O)C3(OCCOc4cccc(Cl)c4)CCOCC3)CC2)cc1` [Example 82, 4-[1-[[4-[2-(3-Chlorophenoxy)ethoxy]tetrahydropyran-4-carbonyl]amino]cyclopropyl]benzoic acid] and `C[C@H](NC(=O)C1(N(C)CCOc2cccc(Cl)c2)CCCCC1)c1ccc(C(=O)O)cc1` [Example 57, 4-[(1S)-1-[[1-[2-(3-Chlorophenoxy)ethyl-methyl-amino]cyclohexanecarbonyl]amino]ethyl]benzoic acid, hydrochloride] cannot be ordered by IC50: less than 100 nM for the first, less than 100 nM for the second.

`C[C@H](NC(=O)C1(N2CC[C@@H](Oc3cccc(Cl)c3)C2)CCC1)c1ccc(C(N)=O)cc1` [Example 172, 4-[(1S)-1-[[1-[(3R)-3-(3-Chlorophenoxy)pyrrolidin-1-yl]cyclobutane-1-carbonyl]amino]ethyl]benzamide, hydrochloride] and `CCC(CC)(C(=O)N[C@@H](C)c1ccc(C(=O)O)cc1)N1CC[C@@H](Oc2cccc(Cl)c2)C1` [Example 210, 4-[(1S)-1-[[2-[(3R)-3-(3-Chlorophenoxy)pyrrolidin-1-yl]-2-ethylbutane-carbonyl]amino]ethyl]benzoic acid, hydrochloride] cannot be ordered by IC50: less than 100 nM for the first, less than 100 nM for the second.

`C[C@H](NC(=O)C1(c2ccc(OCC3CCCCC3)nc2)CCCC1)c1ccc(C(=O)O)cc1` [Example 129, 4-[(1S)-1-[[1-[6-(Cyclohexylmethoxy)-3-pyridyl]cyclopentanecarbonyl]amino]ethyl]benzoic acid] and `C[C@H](NC(=O)C1(c2ccc(OCC3CCCCC3)cn2)CCOCC1)c1ccc(C(=O)O)cc1` [Example 119, 4-[(1S)-1-[[4-[5-(Cyclohexylmethoxy)-2-pyridyl]tetrahydropyran-4-carbonyl]amino]ethyl]benzoic acid] cannot be ordered by IC50: less than 100 nM for the first, less than 1000 nM for the second.

`C[C@H](NC(=O)C1(NCCOc2cccc(Cl)c2)CCCCC1)c1ccc(C(=O)O)cc1` [Example 56, 4-[(1S)-1-[[1-[2-(3-Chlorophenoxy)ethylamino]cyclohexanecarbonyl]amino]ethyl]benzoic acid, hydrochloride] and `C[C@H](NC(=O)C1(NCCOc2ccccc2)CC2(CCC2)C1)c1ccc(C(=O)O)cc1` [Example 68, 4-[(1S)-1-[[2-(2-Phenoxyethylamino)spiro[3.3]heptane-2-carbonyl]amino]ethyl]benzoic acid, hydrochloride] cannot be ordered by IC50: less than 100 nM for the first, less than 1000 nM for the second.

`C[C@H](NC(=O)C1(c2ccc(OCC3CCCCC3)cc2)CCOCC1)c1ccc(C(=O)O)cc1` [Example 89, 4-[(1S)-1-[[4-[4-(Cyclohexylmethoxy)phenyl]tetrahydropyran-4-carbonyl]amino]ethyl]benzoic acid] and `C[C@H](NC(=O)C1(c2ccc(OCc3cccnc3)cc2)CCOCC1)c1ccc(C(=O)O)cc1` [Example 96, 4-[(1S)-1-[[4-[4-(3-Pyridylmethoxy)phenyl]tetrahydropyran-4-carbonyl]amino]ethyl]benzoic acid] cannot be ordered by IC50: less than 1000 nM for the first, less than 1000 nM for the second.

In the case of `CC(C)(C(=O)NC[C@H]1CC[C@H](C(=O)O)CC1)N1CC[C@@H](Oc2cccc(C(F)(F)F)c2)C1` [Example 201, (1R,4R)-4-((2-Methyl-2-((R)-3-(3-(trifluoromethyl)phenoxy)pyrrolidin-1-yl)propanamido)methyl)cyclohexane-1-carboxylic acid, hydrochloride], the IC50 is reported as less than 100 nM.
